Laboratory results from patent US10640520B2, “Boronic acid derivatives” (MERCK PATENT GMBH, priority 2014, dated 2020).

Columns and labels:
[1] = target: LMP7 (Homo sapiens, UniProt P20618+P28062); experiment: Determination of LMP7 activity (fluorescence intensity assay, Suc-LLVY-AMC); format: biochemical; details: purified human immunoproteasome, incubation for 20 minutes
Description: Determination of LMP7 Activity:
Measurement of LMP7 inhibition is performed in 384 well format based on fluorescence intensity assay.
(§1) Purified human immunoproteasome (0.25 nM) and serial diluted compounds in DMSO (range of concentrations from 30 μM to 15 pM) or controls are incubated for 20 minutes or 120 minutes (long incubation) at 25° C. in assay buffer containing 50 mM Tris pH 7.4, 0.03% SDS, 1 mM EDTA and 1% DMSO. The reaction is initiated by the addition of the fluorogenic peptide substrate, Suc-LLVY-AMC (Bachem 1-1395), at a concentration of 40 μM. After 60 minutes of incubation at 37° C., fluorescence intensity is measured at λex=350 nm and λem=450 nm with a fluorescence reader (Perkin Elmer Envision reader or equivalent).
(§2) Unless indicated otherwise the results are obtained after incubation for 20 minutes.

[2] = target: Beta5 (Homo sapiens, UniProt P20618+P28074); experiment: Determination of Beta5 activity (fluorescence intensity assay, Suc-LLVY-AMC); format: biochemical; details: incubation for 20 minutes; for IC50: purified human constitutive proteasome
Description: Determination of Beta5 Activity:
Measurement of Beta5 inhibition is performed in 384 well format based on fluorescence intensity assay.
as §1, with “constitutive proteasome (1.25” for “immunoproteasome (0.25”, “[…])” for “pM)”
as §2

Structure (SMILES) | IC50 [1] [nM] | Selectivity LMP7 vs Beta5 [2] | IC50 [2] [nM]
CCc1cccc(C[C@H](NC(=O)CCCN2CCOC2=O)B(O)O)c1 [Compound 1, [(1R)-2-(3-ethylphenyl)-1-[4-(2-oxooxazolidin-3-yl)butanoylamino]-ethyl]boronic acid] | 50 to 500 | ++ (10 ≤ Selectivity < 30) | > 5000
O=C(CCN1CCCC1=O)N[C@H](Cc1ccccc1)B(O)O [Compound 2, [(1S)-1-[3-(2-oxopyrrolidin-1-yl)propaqanoylamino]-2-phenyl-ethyl]-boronic acid] | < 50 | +++ (30 ≤ Selectivity < 50) | 500 to 5000
O=C(CCN1CCCCC1=O)N[C@H](Cc1ccccc1)B(O)O [Compound 3, [(1S)-1-[3-(2-oxo-1-piperidyl)propanoylamino]-2-phenyl-ethyl]boronic acid] | 50 to 500 | +++ (30 ≤ Selectivity < 50) | 500 to 5000
Cc1ccc(C[C@H](NC(=O)CCN2CCCC2=O)B(O)O)cc1 [Compound 4, [(1R)-1-[3-(2-oxopyrrolidin-1-yl)propanoylamino]-2-(p-tolyl)ethyl]-boronic acid] | < 50 | ++ (10 ≤ Selectivity < 30) | 50 to 500
O=C(CCN1C(=O)CCCC1=O)N[C@@H](Cc1ccccc1)B(O)O [Compound 5, [(1R)-1-[3-(2,6-dioxo-1-piperidyl)propanoylamino]-2-phenyl-ethyl]-boronic acid] | 500 to 5000 | +++ (30 ≤ Selectivity < 50) | > 5000
O=C(CCN1CCCC1=O)N[C@@H](Cc1ccc2ccccc2c1)B(O)O [Compound 6, [(1R)-2-(2-naphthyl)-1-[3-(2-oxopyrrolidin-1-yl)propanoylamino]-ethyl]boronic acid] | < 50 | ++ (10 ≤ Selectivity < 30) | 50 to 500
O=C(CCN1CCCCC1=O)N[C@@H](Cc1ccc2ccccc2c1)B(O)O [Compound 7, [(1R)-2-(2-naphthyl)-1-[3-(2-oxo-1-piperidyl)propanoylamino]ethyl]-boronic acid] | < 50 | ++ (10 ≤ Selectivity < 30) | 50 to 500
O=C(CCN1CCCC1=O)N[C@@H](Cc1ccc2c(c1)OCCO2)B(O)O [Compound 8, [(1R)-2-(2,3-dihydro-1,4-benzodioxin-6-yl)-1-[3-(2-oxopyrrolidin-1-yl)propanoylamino]ethyl]boronic acid] | < 50 | +++ (30 ≤ Selectivity < 50) | 500 to 5000
Cc1ccc(C[C@H](NC(=O)CCN2CCCCC2=O)B(O)O)cc1 [Compound 9, [(1R)-1-[3-(2-oxo-1-piperidyl)propanoylamino]-2-(p-tolyl)ethyl]boronic acid] | < 50 | ++ (10 ≤ Selectivity < 30) | 500 to 5000
O=C(CCN1CCCC1=O)N[C@@H](Cc1cccc2ccccc12)B(O)O [Compound 10, [(1R)-2-(1-naphthyl)-1-[3-(2-oxopyrrolidin-1-yl)propanoylamino]ethyl]-boronic acid] | 50 to 500 | ++ (10 ≤ Selectivity < 30) | 500 to 5000
O=C(CCN1CCCCC1=O)N[C@@H](Cc1cccc2ccccc12)B(O)O [Compound 11, [(1R)-2-(1-naphthyl)-1-[3-(2-oxo-1-piperidyl)propanoylamino]ethyl]-boronic acid] | 50 to 500 | +++ (30 ≤ Selectivity < 50) | 500 to 5000
O=C(CCN1CC(c2ccccc2)CC1=O)N[C@@H](Cc1ccccc1)B(O)O (stereo partly drawn) [Compound 12, [(1R)-1-[3-(2-oxo-4-phenyl-pyrrolidin-1-yl)propanoylamino]-2-phenyl-ethyl]boronic acid] | < 50 | ++ (10 ≤ Selectivity < 30) | 50 to 500
O=C(CCN1CCCCCC1=O)N[C@@H](Cc1ccccc1)B(O)O [Compound 13, [(1R)-1-[3-(2-oxoazepan-1-yl)propanoylamino]-2-phenyl-ethyl]boronic acid] | 50 to 500 | ++ (10 ≤ Selectivity < 30) | 500 to 5000
O=C(CCN1CCN(c2ccccc2)C1=O)N[C@@H](Cc1ccc(F)cc1)B(O)O [Compound 14, [(1R)-2-(4-fluorophenyl)-1-[3-(2-oxo-3-phenyl-imidazolidin-1-yl)propanoylamino]ethyl]boronic acid] | < 50 | ++ (10 ≤ Selectivity < 30) | 50 to 500
Cc1ccc(C[C@H](NC(=O)CCN2CCN(c3ccccc3)C2=O)B(O)O)cc1 [Compound 15, [(1R)-1-[3-(2-oxo-3-phenyl-imidazolidin-1-yl)propanoylamino]-2-(p-tolyl)ethyl]boronic acid] | < 50 | ++ (10 ≤ Selectivity < 30) | 50 to 500
Cc1ccc(C[C@H](NC(=O)CCN2CCCC2=O)B(O)O)cc1C [Compound 16, [(1R)-2-(3,4-dimethylphenyl)-1-[3-(2-oxopyrrolidin-1-yl)propanoylamino]ethyl]boronic acid] | < 50 | +++++ (Selectivity ≥ 70) | 500 to 5000
Cc1ccc(C[C@H](NC(=O)CCN2CCC(C)(C)C2=O)B(O)O)cc1 [Compound 17, [(1R)-1-[3-(3,3-dimethyl-2-oxo-pyrrolidin-1-yl)propanoylamino]-2-(p-tolyl)ethyl]boronic acid] | < 50 | ++ (10 ≤ Selectivity < 30) | 50 to 500
Cc1ccc(C[C@H](NC(=O)CCN2C(=O)CCC2(C)C)B(O)O)cc1 [Compound 18, [(1R)-1-[3-(2,2-dimethyl-5-oxo-pyrrolidin-1-yl)propanoylamino]-2-(p-tolyl)ethyl]boronic acid] | 50 to 500 | +++ (30 ≤ Selectivity < 50) | 500 to 5000
O=C(CCN1CCCC1=O)N[C@@H](Cc1coc2ccccc12)B(O)O [Compound 19, [(1R)-2-(benzofuran-3-yl)-1-[3-(2-oxopyrrolidin-1-yl)propanoylamino]-ethyl]boronic acid] | < 50 | ++++ (50 ≤ Selectivity < 70) | 50 to 500
COCc1ccc(C[C@H](NC(=O)CCN2CCCC2=O)B(O)O)cc1 [Compound 20, [(1R)-2-[4-(methoxymethyl)phenyl]-1-[3-(2-oxopyrrolidin-1-yl)propanoylamino]ethyl]boronic acid] | 50 to 500 | ++ (10 ≤ Selectivity < 30) | 500 to 5000
Cc1ccc(C[C@H](NC(=O)CN2CCCC2=O)B(O)O)cc1 [Compound 21, [(1R)-1-[[2-(2-oxopyrrolidin-1-yl)acetyl]amino]-2-(p-tolyl)ethyl]boronic acid] | 50 to 500 | ++ (10 ≤ Selectivity < 30) | 500 to 5000
Cc1ccc(C[C@H](NC(=O)CCN2CCCCS2(=O)=O)B(O)O)cc1 [Compound 22, [(1R)-1-[3-(1,1-dioxothiazinan-2-yl)propanoylamino]-2-(p-tolyl)ethyl]-boronic acid] | < 50 | ++ (10 ≤ Selectivity < 30) | 50 to 500
Cc1ccc(C[C@H](NC(=O)CC[C@@H]2NC(=O)NC2=O)B(O)O)cc1 [Compound 23, [(1R)-1-[3-[(4S)-2,5-dioxoimidazolidin-4-yl]propanoylamino]-2-(p-tolyl)ethyl]boronic acid] | < 50 | ++ (10 ≤ Selectivity < 30) | 500 to 5000
O=C(CCN1CCCCC1=O)N[C@@H](Cc1coc2ccccc12)B(O)O [Compound 24, [(1R)-2-(benzofuran-3-yl)-1-[3-(2-oxo-1-piperidyl)propanoylamino]-ethyl]boronic acid] | < 50 | +++ (30 ≤ Selectivity < 50) | 50 to 500
Cc1ccc(C[C@H](NC(=O)CCN2CCCCC2=O)B(O)O)cc1C [Compound 25, [(1R)-2-(3,4-dimethylphenyl)-1-[3-(2-oxo-1-piperidyl)propanoylamino]-ethyl]boronic acid] | < 50 | +++++ (Selectivity ≥ 70) | 500 to 5000
O=C(CCN1CCCCS1(=O)=O)N[C@@H](Cc1coc2ccccc12)B(O)O [Compound 26, [(1R)-2-(benzofuran-3-yl)-1-[3-(1,1-dioxothiazinan-2-yl)propanoylamino]ethyl]boronic acid] | < 50 | +++ (30 ≤ Selectivity < 50) | 50 to 500
CC1(C)CCC(=O)N1CCC(=O)N[C@@H](Cc1coc2ccccc12)B(O)O [Compound 27, [(1R)-2-(benzofuran-3-yl)-1-[3-(2,2-dimethyl-5-oxo-pyrrolidin-1-yl)propanoylamino]ethyl]boronic acid] | < 50 | +++++ (Selectivity ≥ 70) | 500 to 5000
